# PubChem BioAssay AID1963969 (Molecular Pharmacology Branch, DTP, NCI, 2024)
# System: 817829-284-R-J1-PDC multi-cell spheroid viability
# Test: Anticancer human tumor 817829-284-R-J1-PDC patient-derived colon adenocarcinoma cell line growth inhibition [PI3K]
# Details: for IC50: curve of first compound; for viability, T/C: stronger effect = lower value
# Method in brief: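 Complex 3D spheroids (cancer cells + endothelial HUVEC + mesenchymal stem cells); drug pairs of targeted agent x inavolisib/alpelisib/duvelisib/copanlisib; half-log series from ~Cmax, max 10 microM if Cmax unknown; endpoint viability.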
# [1] = second compound 0.0316 µM, first compound 0.0316 µM
# [2] = second compound 0.0316 µM, first compound 0.1 µM
# [3] = second compound 0.0316 µM, first compound 0.316 µM
# [4] = second compound 0.0316 µM, first compound 1 µM
# [5] = second compound 0.0316 µM, first compound 3.16 µM
# [6] = second compound 0.0316 µM, first compound 10 µM
# [7] = second compound 0.1 µM, first compound 0.0316 µM
# [8] = second compound 0.1 µM, first compound 0.1 µM
# [9] = second compound 0.1 µM, first compound 0.316 µM
# [10] = second compound 0.1 µM, first compound 1 µM
# [11] = second compound 0.1 µM, first compound 3.16 µM
# [12] = second compound 0.1 µM, first compound 10 µM
# [13] = second compound 0.316 µM, first compound 0.0316 µM
# [14] = second compound 0.316 µM, first compound 0.1 µM
# [15] = second compound 0.316 µM, first compound 0.316 µM
# [16] = second compound 0.316 µM, first compound 1 µM
# [17] = second compound 0.316 µM, first compound 3.16 µM
# [18] = second compound 0.316 µM, first compound 10 µM
# [19] = second compound 1 µM, first compound 0.0316 µM
# [20] = second compound 1 µM, first compound 0.1 µM
# [21] = second compound 1 µM, first compound 0.316 µM
# [22] = second compound 1 µM, first compound 1 µM
# [23] = second compound 1 µM, first compound 3.16 µM
# [24] = second compound 1 µM, first compound 10 µM
# 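Further: spheroids exposed to agents for seven days before readout.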
# 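Wherever viability, T/C is given: percent of vehicle DMSO control viability which is 100%.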
structure (smiles),measurement,setting,value
CC(Cn1ccc(-c2ccc(C#N)c(Cl)c2)n1)NC(=O)c1cc(C(C)O)[nH]n1 (centres undefined) + COc1c(OCCCN2CCOCC2)ccc2c3n(c(=NC(=O)c4cnc(N)nc4)nc12)CCN3,IC50,second compound 0.00316 µM,> 10 µM
same,IC50,second compound 0.01 µM,6.45 µM
same,IC50,second compound 0.0316 µM,5.82 µM
same,IC50,second compound 0.1 µM,< 0.0316 µM
same,IC50,second compound 0.316 µM,< 0.0316 µM
same,IC50,second compound 1 µM,< 0.0316 µM
same,"viability, T/C","second compound 0.00316 µM, first compound 0.0316 µM",70.6%
same,"viability, T/C","second compound 0.00316 µM, first compound 0.1 µM",101%
same,"viability, T/C","second compound 0.00316 µM, first compound 0.316 µM",101%
same,"viability, T/C","second compound 0.00316 µM, first compound 1 µM",97.5%
same,"viability, T/C","second compound 0.00316 µM, first compound 3.16 µM",64.5%
same,"viability, T/C","second compound 0.00316 µM, first compound 10 µM",73.9%
same,"viability, T/C","second compound 0.01 µM, first compound 0.0316 µM",59.5%
same,"viability, T/C","second compound 0.01 µM, first compound 0.1 µM",87.1%
same,"viability, T/C","second compound 0.01 µM, first compound 0.316 µM",98.8%
same,"viability, T/C","second compound 0.01 µM, first compound 1 µM",57.1%
same,"viability, T/C","second compound 0.01 µM, first compound 3.16 µM",71.1%
same,"viability, T/C","second compound 0.01 µM, first compound 10 µM",39.4%
same,"viability, T/C",[1],50.8%
same,"viability, T/C",[2],61.7%
same,"viability, T/C",[3],61.4%
same,"viability, T/C",[4],67.5%
same,"viability, T/C",[5],54.6%
same,"viability, T/C",[6],36.4%
same,"viability, T/C",[7],48.2%
same,"viability, T/C",[8],30.8%
same,"viability, T/C",[9],30.2%
same,"viability, T/C",[10],38.1%
same,"viability, T/C",[11],33.2%
same,"viability, T/C",[12],26.8%
same,"viability, T/C",[13],20.2%
same,"viability, T/C",[14],21.3%
same,"viability, T/C",[15],23.6%
same,"viability, T/C",[16],20.5%
same,"viability, T/C",[17],24.4%
same,"viability, T/C",[18],20.8%
same,"viability, T/C",[19],12.9%
same,"viability, T/C",[20],7.86%
same,"viability, T/C",[21],10.6%
same,"viability, T/C",[22],9.64%
same,"viability, T/C",[23],9.96%
same,"viability, T/C",[24],10.4%
CC1(C)CCC(CN2CCN(c3ccc(C(=O)NS(=O)(=O)c4ccc(NCC5CCOCC5)c([N+](=O)[O-])c4)c(Oc4cnc5[nH]ccc5c4)c3)CC2)=C(c2ccc(Cl)cc2)C1 + Cc1nc(NC(=O)N2CCCC2C(N)=O)sc1-c1ccnc(C(C)(C)C(F)(F)F)c1,IC50,second compound 0.0316 µM,5.01 µM
same,IC50,second compound 0.1 µM,4.25 µM
same,IC50,second compound 0.316 µM,3.89 µM
same,IC50,second compound 1 µM,3.47 µM
same,IC50,second compound 3.16 µM,4.74 µM
same,IC50,second compound 10 µM,2.43 µM
same,"viability, T/C",[1],86.7%
same,"viability, T/C",[2],69.7%
same,"viability, T/C",[3],119%
same,"viability, T/C",[4],42.6%
same,"viability, T/C",[5],84.3%
same,"viability, T/C",[6],4.12%
same,"viability, T/C",[7],97.7%
same,"viability, T/C",[8],67.1%
same,"viability, T/C",[9],98.3%
same,"viability, T/C",[10],87.8%
same,"viability, T/C",[11],65.6%
same,"viability, T/C",[12],4.95%
same,"viability, T/C",[13],67.2%
same,"viability, T/C",[14],58.8%
same,"viability, T/C",[15],72.7%
same,"viability, T/C",[16],70.4%
same,"viability, T/C",[17],58.6%
same,"viability, T/C",[18],6.66%
same,"viability, T/C",[19],65.9%
same,"viability, T/C",[20],67.7%
same,"viability, T/C",[21],82.7%
same,"viability, T/C",[22],72.6%
same,"viability, T/C",[23],54.1%
same,"viability, T/C",[24],3.59%
same,"viability, T/C","second compound 3.16 µM, first compound 0.0316 µM",73.6%
same,"viability, T/C","second compound 3.16 µM, first compound 0.1 µM",62.2%
same,"viability, T/C","second compound 3.16 µM, first compound 0.316 µM",104%
same,"viability, T/C","second compound 3.16 µM, first compound 1 µM",72.2%
same,"viability, T/C","second compound 3.16 µM, first compound 3.16 µM",74.2%
same,"viability, T/C","second compound 3.16 µM, first compound 10 µM",5.23%
same,"viability, T/C","second compound 10 µM, first compound 0.0316 µM",81.1%
same,"viability, T/C","second compound 10 µM, first compound 0.1 µM",89.8%
same,"viability, T/C","second compound 10 µM, first compound 0.316 µM",57.6%
same,"viability, T/C","second compound 10 µM, first compound 1 µM",78.8%
same,"viability, T/C","second compound 10 µM, first compound 3.16 µM",42%
same,"viability, T/C","second compound 10 µM, first compound 10 µM",2.17%
